Assay results reported in PMC12459184, “Design, synthesis, and bioevaluation of pyrazole-containing tubulin polymerisation inhibitors based on conformational constraint strategy” (Journal of Enzyme Inhibition and Medicinal Chemistry, 2025).
Where two headings read alike, the source gives them in different places.

What was measured:
[1] = system: human umbilical vein endothelial cells (HUVEC); experiment: MTT toxicity assay, normal cells HUVEC; assay type: cell-based; conditions: for IC50: Homo sapiens, HUVEC, read-out: IC50 (μM) ± SD HUVEC; for SI-H: SI-H = IC50 (HUVEC)/IC50 (PC-3)
Experimental: The toxicity of compounds 4k and 5a was also tested by using human umbilical vein endothelial cells (HUVEC) and human liver cells (L02).
(§1) Cells grown in logarithmic phase were harvested and seeded onto 96-well cell plates at a density of 4 ∼ 5 × 10^3 cells per well (various from cell type) and were cultured for 24 h. Different concentrations of compounds were added into the wells, and the cells were cultured for another 72 h. The medium was removed, then 20 μL of MTT (5 mg/mL in PBS) was added to each well and the cells were incubated for 4 h. 150 μL of DMSO was added to each well to dissolve the formazan, and the absorbance at 490 nm of each well was measured by a microplate reader. IC50 values were calculated by SPSS software.

HCT-116 cells = experiment: MTT antiproliferative assay, HCT-116; assay type: cell-based; conditions: Homo sapiens, 72 h drug exposure, read-out: IC50 (μM) ± SD HCT-116
Experimental: (§2) All cell lines tested in this study were purchased from the American Type Culture Collection (ATCC, Manassas, VA). SGC-7901 (human gastric adenocarcinoma), HCT-116 (human colon carcinoma), and A549 (human pulmonary carcinoma) cells were cultured in RPMI-1640 medium containing 10% foetal serum (FBS) and 1% penicillin-streptomycin solution (100×). MCF-7 (human breast carcinoma) cells were cultured in DMEM medium containing 10% foetal serum (FBS) and 1% penicillin-streptomycin solution (100×). PC-3 (human prostate carcinoma) cells were cultured in Ham’s F-12K medium containing 10% foetal serum (FBS) and 1% penicillin-streptomycin solution (100×). All cells were cultured at 37 °C in a humidified atmosphere containing 5% CO2.
as §1

cleaved caspase-9 = experiment: Western blot assay, cleaved caspase-9; assay type: cell-based, human; conditions: PC-3 cells, dose-dependent manner
Experimental: (§3) The expression of cell apoptosis-related proteins (Bax, Bcl-2, and cleaved caspase-9) after treatment of 4k and 5a was also measured by western blot assay.
(§4) PC-3 cells in logarithmic phase were harvested and seeded onto culture plates, and were cultured for 24 h. […] The proteins of PC-3 cells were extracted by RIPA buffer containing 1% PMSF (Beyotime Biotechnology, China). The protein concentration was measured by BCA Assay Kit (SEVEN Biotech, China). Equal amounts and concentration of protein were diluted in 5× loading buffer (Beyotime, China) and denatured by boiled for 5 min. Protein samples were separated on 12.5% SDS-PAGE gels (EpiZyme, China) and transferred to PVDF membranes (Millipore Corporation, Billerica, MA, USA). The membranes were blocked in QuickBlockTM Block Buffer (SEVEN Biotech, China) for 10 min at room temperature. Then the membranes were incubated with the primary antibodies overnight at 4 °C, including Cyclin B1 (1:2000, Proteintech, China), CDK1 (1:5000, Proteintech, China), BAX (1:5000, Proteintech, China), Bcl2 (1:1000, Proteintech, China), Caspase 9/p35/p10 (1:1000, Proteintech, China), and β-actin (1:20 000, Proteintech, China). […] The protein signals were detected by using chemiluminescent reagents kit (NCM Biotech, China) and visualised with ChemiDocImaging System (Tanon 5200, China). Protein expressions was quantified by using Fiji/ImageJ software.

SGC-7901 cells = experiment: MTT antiproliferative assay, SGC-7901; assay type: cell-based; conditions: Homo sapiens, read-out: IC50 (μM) ± SD SGC-7901
Experimental: (§5) The in vitro antiproliferative activities of all target compounds 4a−k, 5a−h, and 6a−h were assayed by MTT method using human gastric cancer cell line SGC-7901 and human breast cancer cell line MCF-7.
as §2, §1

Cyclin B1 = experiment: Western blot assay, Cyclin B1; assay type: cell-based, human; conditions: PC-3 cells, at the concentrations of 20 and 40 nM
Experimental: (§6) Additionally, western blot assay was employed to measure the expression level of cell cycle-related proteins cyclin-dependent kinase 1 (CDK1) and Cyclin B1.
as §4

Bax = experiment: Western blot assay, Bax; assay type: cell-based, human; conditions: PC-3 cells
Experimental: as §3, §4

PC-3 cells [2] = experiment: Wound healing assay; assay type: cell-based, human; conditions: 24 h, control group 48.7%
Experimental: To investigate the effect of 4k and 5a on cell migration, wound healing assay was used on PC-3 cells.
PC-3 cells in logarithmic phase were harvested and seeded onto 12-well cell plates at a density of 2.5 × 10^5 cells per well, and were cultured for 24 h. Scratches were made in confluent monolayers using 200 μL pipette tip, and the cells were washing twice with PBS to remove all the non-adherent cells. […] Images of wounds were taken at 0 h and 24 h and analysed by Fiji/ImageJ software.

Bcl-2 = experiment: Western blot assay, Bcl-2; assay type: cell-based, human; conditions: PC-3 cells
Experimental: as §3, §4

A549 cells = experiment: MTT antiproliferative assay, A549; assay type: cell-based; conditions: Homo sapiens, 72 h drug exposure, read-out: IC50 (μM) ± SD A549
Experimental: as §2, §1

MCF-7 cells = experiment: MTT antiproliferative assay, MCF-7; assay type: cell-based; conditions: Homo sapiens, read-out: IC50 (μM) ± SD MCF-7
Experimental: as §5, §2, §1

PC-3 cells [3] = experiment: Cell cycle analysis by flow cytometry; assay type: cell-based, human; conditions: 24 h, vehicle 15%
Experimental: The G2/M phase of cell cycle involves mass physiological activities of microtubules, and tubulin polymerisation inhibitors could arrest cell cycle in G2/M phase by inhibiting microtubule polymerisation.
PC-3 cells in logarithmic phase were harvested and seeded onto 6-well cell plates at a density of 2.5 × 10^5 cells per well, and were cultured for 24 h. […] The cells were digested using trypsin and the suspended cells were harvested. Then the cells were washed with PBS and fixed in 75% ice-cold ethanol at 4 °C overnight. The fixed cells were harvested by centrifugation and washed with PBS, resuspended in 535 μL buffer containing 10 μL RNase (50 ×) and 25 μL PI (20 ×). After incubation at 37 °C in the dark for 30 min, the samples were filtered by nylon screen and detected by FACScan flow cytometry (BectoneDickinson, Franklin Lakes, NJ, USA).

[4] = system: cyclin-dependent kinase 1 (CDK1); experiment: Western blot assay, CDK1; assay type: cell-based, human; conditions: PC-3 cells, at the concentrations of 40 and 20 nM
Experimental: as §6, §4

Compound | SI-H [1] | IC50 (HCT-116 cells) [µM] | level of cleaved caspase-9 (cleaved caspase-9) | level of Cyclin B1 (Cyclin B1) | recover percentage of scratches (PC-3 cells [2]; PC-3, 10 nM) [%] | recover percentage of scratches (PC-3 cells [2]; PC-3, 20 nM) [%] | IC50 (A549 cells) [µM] | level of CDK1 [4] | also measured
COc1cc(C(=O)c2nn(-c3ccc(N)cc3)cc2N)cc(OC)c1OC [4k, (4-amino-1–(4-aminophenyl)-1H-pyrazol-3-yl)(3,4,5-trimethoxyphenyl)methanone] | 39.11 | 0.01 ± 0.001 | increase | increase | 42.7 | 20.2 | 0.04 ± 0.012 | increase | IC50 ([1]; 72 h drug exposure, MTT assay, normal cells): 0.57 ± 0.167 µM; IC50 (SGC-7901 cells; SGC-7901, 72 h drug exposure, MTT assay): 0.017 ± 0.002 µM; expression of Bax (Bax; western blot, 20, 40 nM): significantly increased; expression of Bcl-2 (Bcl-2; western blot, 10, 20, 40 nM): significantly decreased; IC50 (MCF-7 cells; MCF7, 72 h drug exposure, MTT assay): 0.031 ± 0.005 µM; proportion of cells in G2/M phase (PC-3 cells [3]; 10–40 nM): 33–71%
COc1cc(C2=NCC(=O)Nc3cn(-c4ccccc4)nc32)cc(OC)c1OC [5a, 2-Phenyl-8–(3,4,5-trimethoxyphenyl)-2,6-dihydropyrazolo[4,3-e][1,4]diazepin-5(4H)-one] | 147.7 | 0.163 ± 0.038 | increase | increase | 32.3 | 23.3 | 0.063 ± 0.017 | increase | IC50 ([1]; 72 h): 0.86 ± 0.229 µM; IC50 (SGC-7901 cells; SGC-7901, 72 h): 0.018 ± 0.003 µM; expression of Bax (Bax; western blot, 10, 20, 40 nM): significantly increased; expression of Bcl-2 (Bcl-2; western blot, 5, 20, 40 nM): significantly decreased; IC50 (MCF-7 cells; MCF7, 72 h): 1.78 ± 0.617 µM; proportion of cells in G2/M phase (PC-3 cells [3]; 70 nM): 35%; proportion of cells in G2/M phase (PC-3 cells [3]; 100 nM): 71%
